Test results from US20230000840A1, “THERAPEUTIC AGENTS AND PROPHYLACTIC AGENTS FOR FUNCTIONAL GASTROINTESTINAL DISORDERS AND XEROSTOMIA” (NIPPON SHINYAKU CO., LTD., priority 2019, published 2023).

Columns and labels:
ileum = assay: Magnus test: carbachol-induced contraction of isolated rat ileum; details: test compound 10 μM, then carbachol 50 nM, 100% = carbachol 1000 nM, 0% = DMSO + carbachol 50 nM, average ± standard error, read-out: Enhancement ratio P of the contraction force
Experimental: 9- to 15-week-aged SD female rats (Japan SLC, Inc.) were exsanguinated to death by amputation of carotid artery under isoflurane anesthesia. Then, the ileum was removed from each rat, and cut to a length of 2 cm while excising the mesentery and connective tissue, to prepare an intestinal sample. In a Magnus tank, this sample was immersed and suspended in 20 mL of a Krebs solution at 37° C. (118 mM NaCl, 4.7 mM KCl, 2.5 mM CaCl2, 1.2 mM MgSO4, 1.2 mM KH2PO4, 11 mM D-glucose, 20 mM NaHCO3) aerated with a mixed gas of 95% O2 and 5% CO2. Then, a load of 1 g was applied to the sample to stabilize the tension.
One end of the sample was connected to an isotonic transducer (IT-10, Medical Agent), and tension (contraction force) data was imported to a personal computer via Power Lab (registered trademark) (A&D Instruments Limited). Carbachol (Carbamylcholine Chloride, Cat. No. 036-09841, manufactured by FUJIFILM Wako Pure Chemical Industries, Ltd.) was added to the Krebs solution in the Magnus tank such that the final concentration thereof was 1000 nM, and contraction of the sample was checked. A contraction force Tb of the sample at this time was defined as 100%. Then, the Magnus tank was washed with a Krebs solution three times to wash away carbachol, and the Magnus tank was finally filled with 20 mL of a Krebs solution.
Next, dimethyl sulfoxide (DMSO, Cat. No. 13445-74, manufactured by NACALAI TESQUE, INC.) was added to the Krebs solution in the Magnus tank, then carbachol was added to the Krebs solution in the Magnus tank such that the final concentration thereof was 50 nM, and contraction of the sample was checked. A contraction force Ta of the sample at this time was defined as 0%. Then, the Magnus tank was washed with a Krebs solution three times to wash away carbachol and DMSO, and the Magnus tank was finally filled with 20 mL of a Krebs solution. Next, a test compound dissolved in DMSO was added to the Krebs solution in the Magnus tank such that the final concentration thereof was 10 μM, then carbachol was added to the Krebs solution in the Magnus tank such that the final concentration thereof was 50 nM, and contraction of the sample was checked.
As described above, the contraction force Tb of the sample when carbachol was added at a final concentration of 1000 nM was defined as 100%, and the contraction force Ta of the sample when carbachol was added at a final concentration of 50 nM under the condition that DMSO was added first instead of the test compound was defined as 0%. The contraction force of the sample when carbachol was added at a final concentration of 50 nM under the condition that the test compound was added first at a final concentration of 10 μM was denoted by Tc, and an enhancement ratio P (unit: %) of the contraction force by the test compound was calculated according to the following equation (2). The increase in contraction force by the test compound was evaluated on the basis of the enhancement ratio P. The number of cases in each addition group was 3 to 7.
P=100×(Tc−Ta)/(Tb−Ta) (2)

anesthetized mice = assay: Measurement of secreted saliva amount in anesthetized mice; format: in vivo, mouse; details: urethane-anesthetized male ICR mice; 10 mg/kg intravenous; cotton balls weighed after 30 minutes; average ± standard error
Experimental: 8-week-aged male ICR mice (Japan SLC, Inc.) were anesthetized with urethane (1650 mg/kg, intraperitoneal administration). After about 1 hour, a test compound or a vehicle (physiological saline containing 10% DMSO (OTSUKA NORMAL SALINE, manufactured by Otsuka Pharmaceutical Factory, Inc.)) was intravenously administered at 10 mg/kg, and immediately after that, one or two absorbent cotton wool balls ([…]) (Roller Cotton (cotton ball) SS, manufactured by Nichiei Co., Ltd.) were inserted into the mouth. The difference between the weight of the absorbent cotton balls after 30 minutes from insertion and the weight of the absorbent cotton balls before insertion was defined as an amount of saliva secreted. At this time, the test compound was dissolved in DMSO and then diluted 10-fold with physiological saline. The administration volumes of the test compound and the vehicle were each set to 5 mL/kg. The experiment was carried out in three parts. The number of cases in each administration group was 3-4.

**Q.** Which results are given for CCOc1ncc(-c2cc(N(C)CC3(COC)CCC3)c3[nH]c(-c4cnc(N5CCC(C(=O)O)CC5)cn4)nc3n2)cc1C(F)(F)F [Example 3, 1-(5-{5-[6-Ethoxy-5-(trifluoromethyl)pyridin-3-yl]-7-[{[1-(methoxymethyl)cyclobutyl]methyl}(methyl)amino]-1H-imidazo[4,5-b]pyridin-2-yl}pyrazin-2-yl)piperidine-4-carboxylic acid]?
**A.** activation at 10 µM (ileum): 57.3 ± 7.24%; Amount of saliva secreted (anesthetized mice): 27.23 ± 5.94 mg
